Measured values as given in patent US20240408100A1, “TREATMENT METHODS FOR SUBJECTS HAVING CANCER WITH A DYSREGULATED MAPK AND/OR PI3K PATHWAY” (TAIHO PHARMACEUTICAL CO., LTD., priority 2021, published 2024).
Where two headings read alike, the source gives them in different places.

Tests used:
[1] = tested on: SW1573 human lung tumor xenografts; settings: for T/C ratio (%): Day 15; for Number of deaths / Tumor volume (mm^3) Day 15 Mean ± SE: qd Day 1-14, po
LS180 = experiment: 3-day growth inhibition assay; format: cell-based; settings: Homo sapiens; LS180 (Colon), KRAS p.G12D, PIK3CA p.H1047R, PTEN p.I67K; read-out: Growth inhibition (IC50: nmol/L)
Experimental: (§1) The IC50 values for each compound in cell lines used in a series of animal experiments evaluating the antitumor effects of Compound (1) on KRAS mutant tumor xenografts were determined by a 3-day growth inhibition assay (Table 7).

AsPC-1 = experiment: 3-day growth inhibition assay; format: cell-based; settings: Homo sapiens, ASPC1; AsPC-1 (Pancreas), KRAS p.G12D; read-out: Growth inhibition (IC50: nmol/L)
Experimental: as §1

SW1573 = experiment: 3-day growth inhibition assay; format: cell-based; settings: Homo sapiens; SW1573 (NSCLC), KRAS p.G12C, PIK3CA p.K111E; read-out: Growth inhibition (IC50: nmol/L)
Experimental: as §1

LU65 = experiment: 3-day growth inhibition assay; format: cell-based; settings: Homo sapiens, Lu-65; LU65 (NSCLC), KRAS p.G12C; read-out: Growth inhibition (IC50: nmol/L)
Experimental: as §1

[2] = tested on: LS180 human colorectal tumor xenografts; experiment: antitumor effect in mice with LS180 xenograft tumors; format: in vivo; settings: 80 mg/kg/day
Experimental: The oncogenic KRAS mutations are diverse, including not only G12C but also G12X and G13X in the mutation hotspot Glycine at […]. To determine whether Compound (1), which targets downstream of MAPK and PI3K signaling, is effective against G12D mutated cancers, an efficacy experiment of Compound (1) was conducted using subcutaneously transplanted LS180 tumor derived from colorectal cancers with KRAS G12D and PIK3CA and PTEN gene alterations.
Evaluation was conducted by comparing the efficacy of 80 mg/kg/day of Compound (1) with that of 1 mg/kg/day MEK inhibitor trametinib used as a reference group.

[3] = tested on: MCF7 cells (control and NF1 knockdown); experiment: immunoblotting of target inhibition and apoptosis induction; format: cell-based, human
Experimental: To investigate the mechanism of action of Compound (1) in inhibiting the growth of NF1 knockdown breast cancer cells, Compound (1), trametinib, Alpelisib, and fulvestrant were exposed to NF1-knockdown MCF7 and T47D cells at indicated final concentration for 24 hours. NF1, pPRAS40 Thr246, pYB1 Ser102, pS6RP Ser235/236, ERα, and cleaved PARP were detected by immunoblotting.

[4] = tested on: cancer cell lines derived from various human cancer origins; experiment: cell growth inhibition assay, cell panel, CellTiter Glo 2.0; format: cell-based; settings: 72 hour, FIG. 4A
Experimental: Cell growth inhibition assay was conducted according to 72 hour-standard protocol by CellTiter Glo 2.0 Assay.

NF1 mutant cell lines = experiment: growth inhibition assay, summary over the panel; format: cell-based; settings: Homo sapiens; NF1 mutant cell lines except for MDA-MB-231 cells; read-out: IC50 value
Excerpt: In order to investigate the growth inhibitory effect of Compound (1) in NF1 mutant cancer cell lines, the IC50 values of growth inhibition assay were obtained and compared then in Table 2.
In this experiment, to compare the growth inhibitory effect of Compound (1) with those of MAPK and PI3K signaling inhibitors, the IC50 values of trametinib (as a MEK inhibitor), and Alpelisib (as a PI3K inhibitor) were obtained and compared.

[5] = tested on: LU65 human lung tumor xenografts; experiment: antitumor effect in mice with LU65 xenograft tumors
Experimental: The tumor volumes and body weights of animals were recorded.

MCF7_NF1KD = experiment: growth inhibition, 3 days; format: cell-based; settings: Homo sapiens
Experimental: (§2) MCF7 cells cultured in phenol red-free RPMI1640 medium containing 10% charcoal stripped FBS were transfected with NF1 siRNA to a final concentration of […] using Lipofectamine RNAiMAX. The cells were then incubated for 1 day at 37° C., 5% CO2. After that, E2 (estrogen) was added to the medium at 1 nmol/L final concentration, and the cells were cultured for 3 days, after which the cells were collected and cell extracts were prepared.
(§3) To investigate the growth inhibition effect of Compound (1) on the NF1-depleted ER+/HER2− breast cancer cells, MCF7 and T47D, the serially diluted Compound (1) was exposed to the cells for 3 days as in the previous experiment.
(§4) The growth inhibition curve in MCF7 and T47D cells were obtained and the half maximal inhibitory concentration (IC50) value of growth inhibition were calculated as shown in Table 1.

MCF7 = experiment: growth inhibition, 3 days; format: cell-based; settings: Homo sapiens, MCF7, NF1 WT
Experimental: as §2, §3, §4

T47D_NF1KD = experiment: growth inhibition, 3 days; format: cell-based
Experimental: as §2, §3, §4

T47D = experiment: growth inhibition, 3 days; format: cell-based; settings: Homo sapiens, NF1 WT
Experimental: as §2, §3, §4

[6] = tested on: AsPC-1 human pancreatic tumor xenografts; settings: for T/C ratio (%): Day 22; for Tumor volume (mm^3) Day 22 Mean ± SE: qd Day 1-21, po
Experimental: All treatments were administered every day by oral gavage. The tumor volumes and body weights of animals were recorded.

[7] = tested on: ER+/HER2− breast cancer cell lines; experiment: immunoblotting, combination with fulvestrant, presence and absence of estrogen and NF1; format: cell-based; settings: single agent; presence or absence of estrogen; NF1 wildtype and NF1 knockdown cells
Experimental: The actual standard of care for ER+/HER2− breast cancer uses the adjuvant therapies such as tamoxifen, letrozole, or fulvestrant. Patients with recurrent or refractory tumors are treated with additional use of CDK4/6 inhibitors or Alpelisib for PIK3CA-mutated cancers.

PTEN-mutated HEC-6 cells = experiment: dose-dependent apoptosis induction; format: cell-based, human; settings: HEC-6, 48 hour, compared to control
[8] = with estrogen, read-out: IC50 (nmol/L) E2 (+)
[9] = without estrogen, read-out: IC50 (nmol/L) E2 (−)

SMILES: CC(C)(C)NCCNc1ccc(-c2nnc(C(F)(F)F)o2)nc1C1CCN(c2ncnc3c2C(C)(C)C(=O)N3)CC1 [Compound (1), 4-(4-(3-((2-(tert-butylamino)ethyl)amino)-6-(5-(trifluoromethyl)-1,3,4-oxadiazol-2-yl)pyridin-2-yl)piperidin-1-yl)-5,5-dimethyl-5H-pyrolo[2,3-d]pyrimidin-6(7H)-one]
- T/C ratio (%) ([1]; 30 mg/kg/day): 55%
- Number of deaths ([1]; 30 mg/kg/day): 0
- Tumor volume (mm^3) Day 15 Mean ± SE ([1]; 30 mg/kg/day): 438.6 ± 81.1 mm^3
- T/C ratio (%) ([1]; 60 mg/kg/day): 38%
- Number of deaths ([1]; 60 mg/kg/day): 0
- Tumor volume (mm^3) Day 15 Mean ± SE ([1]; 60 mg/kg/day): 305.6 ± 33.0 mm^3
- IC50 (LS180): 316 nmol/L
- IC50 (AsPC-1): 184 nmol/L
- IC50 (SW1573): 139 nmol/L
- IC50 (LU65): 92.9 nmol/L
- Number of deaths [2]: 0
- T/C ratio (%) ([2]; Day 15): 59%
- Tumor volume (mm^3) Day 15 Mean ± SE ([2]; qd Day 1-14, po): 867.8 ± 210.6 mm^3
- signals of pPRAS40, pYB1, and pS6RP (target inhibition) ([3]; MCF7, control and NF1 knockdown, 24 hours, immunoblot): decreased the signals of pPRAS40, pYB1, and pS6RP in a concentration-dependent manner
- apoptosis induction (cleaved PARP signal) ([3]; MCF7 NF1 knockdown cells versus control cells): did not exhibit the attenuation of apoptosis induction
- apoptosis induction (cleaved PARP signal) ([3]; MCF7 control cells (non-targeting siRNA), single agent): induced apoptosis
- growth inhibition in cancer cell panel [4]: potent growth inhibition
- IC50 (NF1 mutant cell lines): < 1000 nM
- Number of deaths ([5]; 80 mg/kg/day): 0
- T/C ratio (%) ([5]; 80 mg/kg/day, Day 13): 75%
- Tumor volume (mm^3) Day 13 Mean ± SE ([5]; 80 mg/kg/day, qd, po): 1724.3 ± 91.1 mm^3
- tolerability (body weight changes) ([5]; throughout the study period): well tolerated
- IC50 (MCF7_NF1KD; [8]): 188 nmol/L
- IC50 (MCF7_NF1KD; [9]): 294 nmol/L
- IC50 (MCF7; [8]): 108 nmol/L
- IC50 (MCF7; [9]): 89 nmol/L
- IC50 (T47D_NF1KD; [8]): 37 nmol/L
- IC50 (T47D_NF1KD; [9]): 111 nmol/L
- IC50 (T47D; [8]): 65 nmol/L
- IC50 (T47D; [9]): 125 nmol/L
- Number of deaths ([6]; 40 mg/kg/day): 0
- T/C ratio (%) ([6]; 40 mg/kg/day): 91%
- Tumor volume (mm^3) Day 22 Mean ± SE ([6]; 40 mg/kg/day): 860.1 ± 112.1 mm^3
- Number of deaths ([6]; 80 mg/kg/day): 0
- T/C ratio (%) ([6]; 80 mg/kg/day): 69%
- Tumor volume (mm^3) Day 22 Mean ± SE ([6]; 80 mg/kg/day): 648.0 ± 51.7 mm^3
- weight reduction or tolerability ([6]; mouse, in vivo): no significant changes in weight reduction or tolerability
- apoptosis induction [7]: observed
- levels of cleaved caspase-3 and cleaved PARP (PTEN-mutated HEC-6 cells): increased cleaved caspase-3 and cleaved PARP in a concentration dependent manner
